Test results reported in patent publication US8263598B2, “Substituted sulfonamide compounds” (Gruenenthal GmbH, priority 2008, dated 2012).

Columns and labels:
[1] = biological target: T1, human B1R receptor (hB1R) (Homo sapiens, UniProt P46663); assay: FLIPR Ca2+ assay on human bradykinin 1 receptor (CHO K1 hB1R cells); assay type: cell-based; conditions: test substance 10 μM; CHO K1 cells with human B1R gene; agonist Lys-Des-Arg9-bradykinin 0.5 nM; compared to maximum achievable inhibition
T1 construct: host or cells: CHO K1 cells
T1 sequence (P46663 1-353): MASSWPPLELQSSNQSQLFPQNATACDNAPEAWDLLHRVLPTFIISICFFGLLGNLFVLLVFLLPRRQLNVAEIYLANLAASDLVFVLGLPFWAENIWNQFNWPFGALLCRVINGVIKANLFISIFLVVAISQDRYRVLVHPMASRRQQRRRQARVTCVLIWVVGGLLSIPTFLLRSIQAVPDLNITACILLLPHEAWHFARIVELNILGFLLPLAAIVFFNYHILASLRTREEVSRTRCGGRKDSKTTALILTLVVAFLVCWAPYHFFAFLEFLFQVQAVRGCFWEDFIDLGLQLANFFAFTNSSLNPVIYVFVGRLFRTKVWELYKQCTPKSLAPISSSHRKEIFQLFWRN
How it was run: (§1)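 CHO K1 cells stably expressing human or rat B1R were loaded with Fluo-4 and tested at 10 μM compound. Ca²⁺ signal was read in FLIPR as % activation versus agonist. After 10 min, agonist was added (hB1R: Lys-Des-Arg9-bradykinin 0.5 nM; rB1R: Des-Arg9-bradykinin 100 nM), and % inhibition was taken relative to maximum achievable inhibition.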

[2] = biological target: T2, B1R receptor of rats (rB1R) (Rattus norvegicus, UniProt P97583); assay: FLIPR Ca2+ assay on rat bradykinin 1 receptor (CHO K1 rB1R cells); assay type: cell-based; conditions: test substance 10 μM; CHO K1 cells with B1R gene of rats; agonist Des-Arg9-bradykinin 100 nM; compared to maximum achievable inhibition
T2 construct: host or cells: CHO K1 cells
T2 sequence (P97583 1-337): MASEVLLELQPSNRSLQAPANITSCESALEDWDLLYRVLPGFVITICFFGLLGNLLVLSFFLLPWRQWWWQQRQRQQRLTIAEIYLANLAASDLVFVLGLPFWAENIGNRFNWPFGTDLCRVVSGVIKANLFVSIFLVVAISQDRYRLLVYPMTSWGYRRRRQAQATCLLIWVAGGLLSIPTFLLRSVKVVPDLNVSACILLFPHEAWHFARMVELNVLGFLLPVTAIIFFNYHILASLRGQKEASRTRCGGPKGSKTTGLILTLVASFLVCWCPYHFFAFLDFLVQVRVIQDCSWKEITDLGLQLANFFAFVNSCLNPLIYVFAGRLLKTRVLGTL
How it was run: as §1

SMILES | inhibition at 10 µM [1] | inhibition at 10 µM [2]
COc1cc(C)c(S(=O)(=O)N(CCOCC(=O)N2CCn3cccc3C2c2cccc(F)c2)CC(C)C)c(C)c1C (stereo not drawn) [Example 24, N-(2-(2-(1-(3-fluorophenyl)-3,4-dihydropyrrolo[1,2-a]pyrazin-2(1H)-yl)-2-oxoethoxy)ethyl)-N-isobutyl-4-methoxy-2,3,6-trimethylbenzenesulfonamide] | 32% | 99%
COc1cc(C)c(S(=O)(=O)N(C)CCOCC(=O)N2CCn3cc(CCc4ccncc4)nc3C2)c(C)c1 [Example 178, 4-Methoxy-N,2,6-trimethyl-N-(2-(2-oxo-2-(2-(2-(pyridin-4-yl)ethyl)-5,6-dihydroimidazo[1,2-a]pyrazin-7(8H)-yl)ethoxy)ethyl)benzenesulfonamide] | 99% | 100%
COc1cc(C)c(S(=O)(=O)N(C)CCOCC(=O)N2CCn3c(CN(C)C)ccc3C2Cc2ccccc2)c(C)c1C (stereo not drawn) [Example 151, N-(2-(2-(1-benzyl-6-((dimethylamino)methyl)-3,4-dihydropyrrolo[1,2-a]pyrazin-2(1H)-yl)-2-oxoethoxy)ethyl)-4-methoxy-N,2,3,6-tetramethylbenzene-sulfonamide] | 102% | 103%
COc1cc(C)c(S(=O)(=O)N(C)CCOCC(=O)N2CCn3c(CCCN4CCN(C)CC4)ccc3C2)c(C)c1 [Example 12, 4-methoxy-N,2,6-trimethyl-N-(2-(2-(6-(3-(4-methylpiperazin-1-yl)propyl)-3,4-dihydropyrrolo[1,2-a]pyrazin-2(1H)-yl)-2-oxoethoxy)ethyl)benzenesulfonamide] | 97% | 100%
COc1cc(C)c(S(=O)(=O)N(CCOCC(=O)N2CCn3c(CN(C)C)ccc3C2CCc2ccccc2)CC(C)C)c(C)c1C (stereo not drawn) [Example 96, N-(2-(2-(6-((dimethylamino)methyl)-1-phenethyl-3,4-dihydropyrrolo[1,2-a]pyrazin-2(1H)-yl)-2-oxoethoxy)ethyl)-N-isobutyl-4-methoxy-2,3,6-trimethyl-benzenesulfonamide] | 102% | 101%
COc1cc(C)c(S(=O)(=O)N(C)CCOCC(=O)N2CCn3c(ccc3-c3cccnc3)C2)c(C)c1 [Example 166, 4-Methoxy-N,2,6-trimethyl-N-(2-(2-oxo-2-(6-(pyridin-3-yl)-3,4-dihydropyrrolo[1,2-a]pyrazin-2(1H)-yl)ethoxy)ethyl)benzenesulfonamide] | 100% | 99%
COc1c(C)cc(S(=O)(=O)N(C)CCOCC(=O)N2CCn3c(CN(C)C)ccc3C2c2ccccc2)c(C)c1C (stereo not drawn) [Example 105, N-(2-(2-(6-((dimethylamino)methyl)-1-phenyl-3,4-dihydropyrrolo[1,2-a]pyrazin-2(1H)-yl)-2-oxoethoxy)ethyl)-4-methoxy-N,2,3,5-tetramethylbenzene-sulfonamide] | 100% | 100%
Cc1cc(C)c(S(=O)(=O)N(C)CCOCC(=O)N2CCn3cccc3C2c2cccs2)c(C)c1 (stereo not drawn) [Example 74, N,2,4,6-tetramethyl-N-(2-(2-oxo-2-(1-(thiophen-2-yl)-3,4-dihydropyrrolo[1,2-a]pyrazin-2(1H)-yl)ethoxy)ethyl)benzenesulfonamide] | 99% | 102%
COc1cc(C)c(S(=O)(=O)N(C)CCOCC(=O)N2CCn3c(CN4CCCC4)ccc3C2)c(C)c1 [Example 11, 4-methoxy-N,2,6-trimethyl-N-(2-(2-oxo-2-(6-(pyrrolidin-1-ylmethyl)-3,4-dihydropyrrolo[1,2-a]pyrazin-2(1H)-yl)ethoxy)ethyl)benzenesulfonamide] | 103% | 102%
COc1cc(C)c(S(=O)(=O)N(CCOCC(=O)N2CCn3cccc3C2CCc2ccccc2)Cc2ccccc2)c(C)c1 (stereo not drawn) [Example 125, N-benzyl-4-methoxy-2,6-dimethyl-N-(2-(2-oxo-2-(1-phenethyl-3,4-dihydropyrrolo[1,2-a]pyrazin-2(1H)-yl)ethoxy)ethyl)benzenesulfonamide] | 25% | 78%
COc1c(C)cc(S(=O)(=O)N(C)CCOCC(=O)N2CCn3c(CN(C)C)ccc3C2c2cccs2)c(C)c1C (stereo not drawn) [Example 112, N-(2-(2-(6-((dimethylamino)methyl)-1-(thiophen-2-yl)-3,4-dihydropyrrolo[1,2-a]pyrazin-2(1H)-yl)-2-oxoethoxy)ethyl)-4-methoxy-N,2,3,5-tetramethylbenzene-sulfonamide] | 101% | 101%
CN1CCN(CCCc2ccc3n2CCN(C(=O)CC(NS(=O)(=O)c2ccc4ccccc4c2)c2ccccc2)C3)CC1 (stereo not drawn) [Example 13, N-(3-(6-(3-(4-methylpiperazin-1-yl)propyl)-3,4-dihydropyrrolo[1,2-a]pyrazin-2(1H)-yl)-3-oxo-1-phenylpropyl)naphthalene-2-sulfonamide] | 44% | 100%
CCCCC1c2ccc(CN(C)C)n2CCN1C(=O)COCCN(Cc1ccccc1)S(=O)(=O)c1c(C)cc(OC)c(C)c1C (stereo not drawn) [Example 120, N-benzyl-N-(2-(2-(1-butyl-6-((dimethylamino)methyl)-3,4-dihydropyrrolo[1,2-a]pyrazin-2(1H)-yl)-2-oxoethoxy)-ethyl)-4-methoxy-2,3,6-trimethyl-benzenesulfonamide] | 84% | 92%
COc1cc(C)c(S(=O)(=O)N(CCOCC(=O)N2CCn3c(CN(C)C)ccc3C2c2cccs2)Cc2ccccc2)c(C)c1 (stereo not drawn) [Example 130, N-benzyl-N-(2-(2-(6-((dimethylamino)methyl)-1-(thiophen-2-yl)-3,4-dihydropyrrolo[1,2-a]pyrazin-2(1H)-yl)-2-oxoethoxy)ethyl)-4-methoxy-2,6-dimethyl-benzenesulfonamide] | 104% | 102%
COc1cc(C)c(S(=O)(=O)N(CCOCC(=O)N2CCn3cccc3C2c2ccc(C(C)(C)C)cc2)Cc2ccccc2)c(C)c1 (stereo not drawn) [Example 51, N-benzyl-N-(2-(2-(1-(4-tert-butylphenyl)-3,4-dihydropyrrolo[1,2-a]pyrazin-2(1H)-yl)-2-oxoethoxy)ethyl)-4-methoxy-2,6-dimethylbenzenesulfonamide] | 58% | 85%
COc1cccc(C2c3cccn3CCN2C(=O)COCCN(C)S(=O)(=O)c2c(C)cc(C)cc2C)c1 (stereo not drawn) [Example 76, N-(2-(2-(1-(3-methoxyphenyl)-3,4-dihydropyrrolo[1,2-a]pyrazin-2(1H)-yl)-2-oxoethoxy)ethyl)-N,2,4,6-tetramethylbenzenesulfonamide] | 101% | 97%
COc1cc(C)c(S(=O)(=O)N(C)CCOCC(=O)N2CCn3cccc3C2c2ccc(C)c(C)c2)c(C)c1 (stereo not drawn) [Example 58, N-(2-(2-(1-(3,4-dimethylphenyl)-3,4-dihydropyrrolo[1,2-a]pyrazin-2(1H)-yl)-2-oxoethoxy)ethyl)-4-methoxy-N,2,6-trimethylbenzenesulfonamide] | 102% | 97%
COc1cc(C)c(S(=O)(=O)N(C)CCOCC(=O)N2CCn3cc(CN4CCCCC4)nc3C2)c(C)c1 [Example 2, 4-methoxy-N,2,6-trimethyl-N-(2-(2-oxo-2-(2-(piperidin-1-ylmethyl)-5,6-dihydroimidazo[1,2-a]pyrazin-7(8H)-yl)ethoxy)ethyl)benzenesulfonamide] | 106% | 104%
COc1cc(C)c(S(=O)(=O)N(CCOCC(=O)N2CCn3c(CN4CCCCC4)ccc3C2c2ccccc2)Cc2ccccc2)c(C)c1 (stereo not drawn) [Example 128, N-benzyl-4-methoxy-2,6-dimethyl-N-(2-(2-oxo-2-(1-phenyl-6-(piperidin-1-ylmethyl)-3,4-dihydropyrrolo[1,2-a]pyrazin-2(1H)-yl)ethoxy)ethyl)benzene-sulfonamide] | 101% | 103%
COc1cc(C)c(S(=O)(=O)N(C)CCOCC(=O)N2CCn3cccc3C2c2ccc(C(C)(C)C)cc2)c(C)c1C (stereo not drawn) [Example 90, N-(2-(2-(1-(4-tert-butylphenyl)-3,4-dihydropyrrolo[1,2-a]pyrazin-2(1H)-yl)-2-oxoethoxy)ethyl)-4-methoxy-N,2,3,6-tetramethylbenzenesulfonamide] | 47% | 66%
COc1cc(C)c(S(=O)(=O)N(C)CCOCC(=O)N2CCn3c(CN(C)C)ccc3C2c2ccccc2)c(C)c1 (stereo not drawn) [Example 14, N-(2-(2-(6-((dimethylamino)methyl)-1-phenyl-3,4-dihydropyrrolo[1,2-a]pyrazin-2(1H)-yl)-2-oxoethoxy)ethyl)-4-methoxy-N,2,6-trimethylbenzenesulfonamide] | 103% | 100%
